Measurements from ChEMBL document CHEMBL4732209, “Indole scaffolds as a promising class of the aryl hydrocarbon receptor ligands” (Eur J Med Chem, 2021).

Assays:
[1] = target: T1, Aryl hydrocarbon receptor (Homo sapiens, UniProt P35869); experiment: Agonist activity at AHR in human HepG2 cells incubated for 4.5 hrs by Luciferase reporter assay; format: cell-based
T1 sequence (P35869 whole entry): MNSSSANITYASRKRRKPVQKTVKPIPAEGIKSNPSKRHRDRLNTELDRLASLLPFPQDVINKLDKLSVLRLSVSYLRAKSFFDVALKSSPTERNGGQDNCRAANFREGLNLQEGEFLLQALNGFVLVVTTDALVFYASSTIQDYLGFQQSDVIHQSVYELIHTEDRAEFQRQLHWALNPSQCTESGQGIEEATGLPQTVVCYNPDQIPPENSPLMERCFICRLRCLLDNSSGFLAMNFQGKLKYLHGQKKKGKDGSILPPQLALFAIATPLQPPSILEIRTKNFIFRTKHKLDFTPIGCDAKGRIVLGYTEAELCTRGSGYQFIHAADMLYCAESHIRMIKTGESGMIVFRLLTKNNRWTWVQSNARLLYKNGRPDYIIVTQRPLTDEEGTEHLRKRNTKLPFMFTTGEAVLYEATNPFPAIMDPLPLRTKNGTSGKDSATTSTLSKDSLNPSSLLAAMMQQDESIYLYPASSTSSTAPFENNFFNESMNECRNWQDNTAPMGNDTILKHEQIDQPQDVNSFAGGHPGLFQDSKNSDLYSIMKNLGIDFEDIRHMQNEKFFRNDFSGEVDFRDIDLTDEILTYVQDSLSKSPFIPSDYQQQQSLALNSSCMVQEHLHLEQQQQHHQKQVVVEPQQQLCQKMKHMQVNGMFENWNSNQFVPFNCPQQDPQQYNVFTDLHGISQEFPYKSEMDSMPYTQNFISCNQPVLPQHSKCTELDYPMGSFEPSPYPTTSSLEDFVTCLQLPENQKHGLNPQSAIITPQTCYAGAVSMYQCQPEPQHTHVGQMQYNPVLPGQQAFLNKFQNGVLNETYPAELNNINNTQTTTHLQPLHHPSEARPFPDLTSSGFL

[2] = target: T1, Aryl hydrocarbon receptor; experiment: Agonist activity at AHR in human AZ-AHR stable HepG2 cells by Luciferase reporter assay
[3] = target: T1, Aryl hydrocarbon receptor; experiment: Agonist activity at AHR in human MDA-MB-468 cells incubated for 24 hrs by Western blot analysis; format: cell-based

SMILES | EC50 [1] | EC50 [2] | EC50 [3]
O=C(c1cccc(C(F)(F)F)n1)c1c[nH]c2ccccc12 | 2 nM | – | –
OC(c1ccncc1)(c1cc2ccccc2[nH]1)c1cc2ccccc2[nH]1 | – | 1600 nM | –
N#Cc1cccc(C(=O)c2c[nH]c3ccccc23)n1 | 2 nM | – | –
Brc1c(Br)c(Br)c2c([nH]c3c(Br)c(Br)c(Br)c(Br)c32)c1Br | – | – | < 1000 nM
Clc1c(Cl)c(Cl)c2c([nH]c3c(Cl)c(Cl)c(Cl)c(Cl)c32)c1Cl | – | – | < 1000 nM
CCOn1c(C(O)(c2ccncc2)c2cc3ccccc3[nH]2)cc2ccccc21 (stereo unspecified) | – | 1600 nM | –
